Results on 30 compounds are retold here after ChEMBL document CHEMBL1629508, “Synthesis and structure-activity relationships of tyrosine-based inhibitors of autotaxin (ATX)” (Bioorg Med Chem Lett, 2010).

Experiment [1] has as its target T1, Autotaxin (Homo sapiens, UniProt Q13822). The experiment in a line: Inhibition of autotoxin assessed as choline production after 60 to 180 mins using lysophosphatidylcholine as a substrate by colorimetric method.
In experiment [2] the target is T1, Autotaxin. The experiment in a line: Inhibition of autotoxin assessed as choline release from LPC using lysophosphatidylcholine as substrate.

SMILES strings stand for the structures.

In the case of `CCCCCCCCCCCCCCCC(=O)N[C@@H](Cc1ccc(OCc2cc(C)c(OC)c(C)c2)cc1)[C@@H](O)CP(=O)(O)O`, the Ki (usually a dissociation constant, usually derived from enzyme kinetics or from competition with a known ligand) at Autotaxin [1] worked out at 1.6 µM.

With `CCCCCCCCCCCCCCCC(=O)N[C@@H](Cc1ccc(OCc2ncc(C)c(OC)c2C)cc1)[C@@H](O)CP(=O)(O)O`, the Ki at Autotaxin [1] came out at 1 µM.

Turning to `CCCCCCCCCCCCCCCC(=O)N[C@@H](Cc1ccc(OCc2ncc(C)c(OC)c2C)cc1)[C@H](O)CP(=O)(O)O`, the Ki at Autotaxin [1] came to 3.9 µM.

With `CCCCCCCCCCCCCCCC(=O)N[C@@H](Cc1ccc(OCc2ccccc2)cc1)[C@@H](O)CP(=O)(O)O`, the Ki at Autotaxin [1] came to 27 µM.

Take `CCCCCCCCCCCCCCCC(=O)N[C@@H](Cc1ccc(OCc2ccccc2)cc1)[C@H](O)CP(=O)(O)O`: the inhibition constant (Ki) at Autotaxin [1] came out at 83 µM.

For `CCCCCCCCCCCCCCCC(=O)N[C@@H](Cc1ccc(OCc2ccccn2)cc1)[C@@H](O)CP(=O)(O)O`, the Ki at Autotaxin [1] was 4.4 µM.

Take `CCCCCCCCCCCCCCCC(=O)N[C@@H](Cc1ccc(OCc2ccccn2)cc1)[C@H](O)CP(=O)(O)O`: on Autotaxin [1], the Ki is 11 µM.

Turning to `CCCCCCCCCCCCCCCC(=O)N[C@@H](Cc1ccc(OCc2cc(OC)ccn2)cc1)[C@@H](O)CP(=O)(O)O`, the Ki at Autotaxin [1] amounted to 1.5 µM.

Consider `CCCCCCCCCCCCCCCC(=O)N[C@@H](Cc1ccc(OCc2cc(OC)ccn2)cc1)[C@H](O)CP(=O)(O)O`, for which, at Autotaxin [1], the Ki was determined as 3.5 µM.

As for `CCCCCCCCCCCCCCCC(=O)N[C@@H](Cc1ccc(OCc2ncc(C)cc2C)cc1)[C@@H](O)CP(=O)(O)O`, the Ki at Autotaxin [1] turned out to be 3.9 µM.

`CCCCCCCCCCCCCCCC(=O)N[C@@H](Cc1ccc(OCc2ncc(C)cc2C)cc1)[C@H](O)CP(=O)(O)O`: the Ki at Autotaxin [1] was 399 µM.

`CCCCCCCCCCCCCCCC(=O)N[C@@H](Cc1ccc(OCc2ncc(C)c(OCC)c2C)cc1)[C@@H](O)CP(=O)(O)O`: at Autotaxin [1], the Ki is 4.7 µM.

`CCCCCCCCCCCCCCCC(=O)N[C@@H](Cc1ccc(OCc2ncc(C)c(OC(C)C)c2C)cc1)[C@H](O)CP(=O)(O)O`: the Ki on Autotaxin [1] is 11.1 µM.

On to `CCCCCCCCCCCCCCCC(=O)N[C@@H](Cc1ccc(OCc2ncc(C)c(OCC)c2C)cc1)[C@H](O)CP(=O)(O)O`, for which the Ki on Autotaxin [1] stood at 6.2 µM.

As for `CCCCCCCCCCCCCCCC(=O)N[C@@H](Cc1ccc(OCc2ncc(C)c(OC(C)C)c2C)cc1)[C@@H](O)CP(=O)(O)O`, at Autotaxin [1], the Ki is 8.8 µM.

Take `CCCCCCCCCCCCCCCC(=O)N[C@@H](Cc1ccc(OCc2cc(OCC(F)(F)F)ccn2)cc1)[C@@H](O)CP(=O)(O)O`: the Ki at Autotaxin [1] came out at 11.6 µM.

Consider `CCCCCCCCCCCCCCCC(=O)N[C@@H](Cc1ccc(OCc2cc(OCC(F)(F)F)ccn2)cc1)[C@H](O)CP(=O)(O)O`, for which, on Autotaxin [1], the Ki is 22.5 µM.

`CCCCCCCCCCCCCCCC(=O)N[C@@H](Cc1ccc(OCc2ccc(C)cc2C)cc1)[C@@H](O)CP(=O)(O)O`: the Ki on Autotaxin [1] worked out at 1.8 µM.

On to `CCCCCCCCCCCCCCCC(=O)N[C@@H](Cc1ccc(OCc2ccc(C)cc2C)cc1)[C@H](O)CP(=O)(O)O`, for which, on Autotaxin [1], the Ki is 4.8 µM.

`CCCCCCCCCCCCCCCC(=O)N[C@@H](Cc1ccc(OCc2ccc(Cl)cc2Cl)cc1)[C@@H](O)CP(=O)(O)O`: on Autotaxin [1], the Ki came out at 584 µM.

Take `CCCCCCCCCCCCCCCC(=O)N[C@@H](Cc1ccc(OCc2ccc(Cl)cc2Cl)cc1)[C@H](O)CP(=O)(O)O`: the Ki on Autotaxin [1] is 1060 µM.

As to `CCCCCCCCCCCCCCCC(=O)N[C@@H](Cc1ccc(OCc2cc(C)c(OC)c(C)c2)cc1)[C@H](O)CP(=O)(O)O`, the Ki at Autotaxin [1] worked out at 5.3 µM.

For the compound `CCCCCCCCCCCCCCCC(=O)N[C@@H](Cc1ccc(OCc2cc(C)cc(C)c2)cc1)[C@@H](O)CP(=O)(O)O`, on Autotaxin [1], the Ki came out at 88.9 µM.

Take `CCCCCCCCCCCCCCCC(=O)N[C@@H](Cc1ccc(OCc2cc(C)cc(C)c2)cc1)[C@H](O)CP(=O)(O)O`: on Autotaxin [1], the Ki was found to be 217 µM.

As for `CCCCCCCCCCCCCCCC(=O)N[C@@H](Cc1ccc(OCc2ccc(OC)c(C)c2)cc1)[C@@H](O)CP(=O)(O)O`, at Autotaxin [1], the Ki turned out to be 4.3 µM.

For `CCCCCCCCCCCCCCCC(=O)N[C@@H](Cc1ccc(OCc2ccc(OC)c(C)c2)cc1)[C@H](O)CP(=O)(O)O`, the Ki on Autotaxin [1] was found to be 26.5 µM.

Take `O=C1S/C(=C\c2cccc(B(O)O)c2)C(=O)N1Cc1ccc(F)cc1`: the Ki on Autotaxin [2] was found to be 0.094 µM.

Turning to `O=C(O)c1cccc(/C=C2\SC(=O)N(Cc3ccc(F)cc3)C2=O)c1`, at Autotaxin [2], the Ki came to 0.187 µM.

For `CCCCCCCCCCCCCC(=O)Nc1ccc(CP(=O)(O)O)cc1`, the Ki at Autotaxin [2] turned out to be 0.367 µM.

Consider `CCCCCCCCCCCCCCCCCC(=O)OC[C@@H](O)CC(Br)P(=O)(O)O` (stereo not given in full), for which the Ki on Autotaxin [2] came out at 40.1 µM.
